# Measurements as given in the supplement of paper PMC8149375.
# Columns and labels:
# Details in all cases: treatment: drug alone; 5 days
# [1] = test system: TK-10; experiment: minimum viability across doses, drug alone, relative to DMSO (fraction); higher = less growth inhibition
# Procedure: (§1)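 Primary HTS: 8 RCC cell lines treated with 8 doses (up to 10 uM) of each library drug alone for 5 days; viability read by CellTiter-Glo and normalised to DMSO. GI50 was fitted with XLfit (4-parameter), AUC is the area under the dose-response curve, and minimum viability is the lowest fraction of DMSO viability across doses.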
# [2] = test system: A498; experiment: as above
# Procedure: as §1
# [3] = test system: 786-O; experiment: as above
# Procedure: as §1
# [4] = test system: UO-31; experiment: as above
# Procedure: as §1
# [5] = test system: CAKI-1; experiment: as above
# Procedure: as §1
# [6] = test system: ACHN; experiment: as above
# Procedure: as §1
# [7] = test system: 769-P; experiment: as above
# Procedure: as §1
# [8] = test system: SN12C; experiment: as above
# Procedure: as §1
# [9] = test system: TK-10; experiment: GI50, drug alone; higher = less potent
# Procedure: as §1
# [10] = test system: A498; experiment: GI50, drug alone; higher = less potent
# Procedure: as §1
# [11] = test system: 786-O; experiment: GI50, drug alone; higher = less potent
# Procedure: as §1
# [12] = test system: UO-31; experiment: GI50, drug alone; higher = less potent
# Procedure: as §1
# [13] = test system: CAKI-1; experiment: GI50, drug alone; higher = less potent
# Procedure: as §1
# [14] = test system: ACHN; experiment: GI50, drug alone; higher = less potent
# Procedure: as §1
# [15] = test system: 769-P; experiment: GI50, drug alone; higher = less potent
# Procedure: as §1
# [16] = test system: SN12C; experiment: GI50, drug alone; higher = less potent
# Procedure: as §1
# [17] = test system: TK-10; experiment: AUC of dose-response viability curve, drug alone (arbitrary (AUC of normalised viability)); higher = less growth inhibition
# Procedure: as §1
# [18] = test system: A498; experiment: as above
# Procedure: as §1
# [19] = test system: 786-O; experiment: as above
# Procedure: as §1
# [20] = test system: UO-31; experiment: as above
# Procedure: as §1
# [21] = test system: CAKI-1; experiment: as above
# Procedure: as §1
# [22] = test system: ACHN; experiment: as above
# Procedure: as §1
# [23] = test system: 769-P; experiment: as above
# Procedure: as §1
# [24] = test system: SN12C; experiment: as above
# Procedure: as §1
"GI50, drug alone [11] [µM]","GI50, drug alone [14] [µM]",Compound,minimum viability across doses [1],minimum viability across doses [2],minimum viability across doses [3],minimum viability across doses [4],minimum viability across doses [5],minimum viability across doses [6],minimum viability across doses [7],minimum viability across doses [8],"GI50, drug alone [9] [µM]","GI50, drug alone [10] [µM]","GI50, drug alone [12] [µM]","GI50, drug alone [13] [µM]","GI50, drug alone [15] [µM]","GI50, drug alone [16] [µM]",AUC of dose-response viability curve [17],AUC of dose-response viability curve [18],AUC of dose-response viability curve [19],AUC of dose-response viability curve [20],AUC of dose-response viability curve [21],AUC of dose-response viability curve [22],AUC of dose-response viability curve [23],AUC of dose-response viability curve [24]
> 10,6.95,O=C1C(=O)N(Cc2ccc(Cl)c(Cl)c2)c2ccccc21 [Apoptosis Activator 2],0.439,0.506,0.00355,0.818,0.342,0.339,0.654,0.193,8.15,> 10,> 10,7.68,> 10,4.98,2.82,4.06,1.07,4.31,3.53,2.87,3.51,2.93
> 10,4.7,CNC(=O)c1ccccc1Sc1ccc2c(/C=C/c3ccccn3)n[nH]c2c1 [Axitinib],0.748,0.779,0.661,0.672,0.367,0.287,0.436,0.375,> 10,> 10,> 10,2.87,6.97,5.6,3.07,4.06,3.02,4.27,2.86,3.13,3.08,3.06
0.15,0.223,Cn1c(=O)n(-c2ccc(C(C)(C)C#N)cc2)c2c3cc(-c4cnc5ccccc5c4)ccc3ncc21 [BEZ235 (NVP-BEZ235)],0.157,0.0718,0.139,0.00561,0.0875,0.0714,0.165,0.189,0.489,0.303,0.152,0.294,0.301,0.297,2.11,2.03,1.74,1.69,1.99,1.86,2.02,1.96
2.25,0.747,CCN1CCN(c2ccc(Nc3cc(N(C)C(=O)Nc4c(Cl)c(OC)cc(OC)c4Cl)ncn3)cc2)CC1 [BGJ398 (NVP-BGJ398)],0.327,0.92,0.218,0.401,0.133,0.111,0.631,0.385,3.23,> 10,7.58,0.519,> 10,6.98,2.68,3.84,2.7,2.98,2.1,2.28,3.22,2.91
0.0123,0.13,CC[C@@H]1C(=O)N(C)c2cnc(Nc3ccc(C(=O)N[C@H]4CC[C@H](N5CCN(CC6CC6)CC5)CC4)cc3OC)nc2N1C(C)C [BI6727 (Volasertib)],0.0289,0.0429,0.00304,0.012,0.0881,0.0122,0.0308,0.0643,0.293,2.03,0.0581,0.157,0.126,0.123,1.93,2.78,0.673,2.07,2.01,1.87,1.66,1.71
0.0101,0.0499,CC[C@@H]1C(=O)N(C)c2cnc(Nc3ccc(C(=O)NC4CCN(C)CC4)cc3OC)nc2N1C1CCCC1 [BI 2536],0.0909,0.0641,0.0067,0.0104,0.121,0.121,0.049,0.0427,0.317,0.458,0.0839,0.0936,0.12,0.0549,1.91,1.97,0.585,1.61,1.78,1.37,1.58,1.37
> 10,2.07,COC(=O)c1ccc2c(c1)NC(=O)/C2=C(\Nc1ccc(N(C)C(=O)CN2CCN(C)CC2)cc1)c1ccccc1 [BIBF1120 (Vargatef)],0.61,0.892,0.782,0.439,0.251,0.255,0.917,0.393,> 10,> 10,7.36,2.13,> 10,> 10,3.09,3.91,3.94,4.65,2.81,2.77,3.42,2.58
> 10,> 10,Cc1ccc(-n2nc(C(C)(C)C)cc2NC(=O)Nc2ccc(OCCN3CCOCC3)c3ccccc23)cc1 [BIRB 796 (Doramapimod)],0.712,0.879,0.748,0.787,0.858,0.709,0.91,0.796,> 10,> 10,> 10,> 10,> 10,> 10,3.02,4.02,3.46,3.74,3.46,2.88,3.52,3.36

Compound,"GI50, drug alone [11] [µM]","GI50, drug alone [14] [µM]",minimum viability across doses [1],minimum viability across doses [2],minimum viability across doses [3],minimum viability across doses [4],minimum viability across doses [5],minimum viability across doses [6],minimum viability across doses [7],minimum viability across doses [8],"GI50, drug alone [9] [µM]","GI50, drug alone [10] [µM]","GI50, drug alone [12] [µM]","GI50, drug alone [13] [µM]","GI50, drug alone [15] [µM]","GI50, drug alone [16] [µM]",AUC of dose-response viability curve [17],AUC of dose-response viability curve [18],AUC of dose-response viability curve [19],AUC of dose-response viability curve [20],AUC of dose-response viability curve [21],AUC of dose-response viability curve [22],AUC of dose-response viability curve [23],AUC of dose-response viability curve [24]
CCN1CCN(C(=O)Cc2ccc(Nc3ncc(F)c(Nc4ccc(C(=O)Nc5ccccc5Cl)cc4)n3)cc2)CC1 [Aurora A Inhibitor I],0.234,0.557,0.481,0.871,0.0582,0.327,0.00638,0.062,0.0238,0.465,4.41,> 10,9.23,0.98,2.03,5.34,2.7,4.05,1.75,3.82,2.49,2.17,2.75,2.95
